Drawing on paper PMC10023664, “Hiat1 as a new transporter involved in ammonia regulation” (Scientific Reports, 2023), this text covers Km for one molecule.

The assay concerns Carcinus maenas Hiat1 (CmHiat1). The settings on record: 0.5-20 mM NH4Cl in OR2 bath; room temperature; net flux of whole oocyte, not sham-subtracted (endogenous NH4+ uptake present).

What is called Km is the concentration of substrate that gives half-maximal velocity.

As to `N` [NH4^+], the Michaelis-Menten constant (Km) is 2300 µM.
